In assay [1] the target is T1, human SCD5 (Homo sapiens, UniProt Q86SK9).
T1 construct: expressed in transfected cells; host or cells: yeast strain with OLE1 deleted, plasmid-borne human SCD5 (selected in SD-Ura)
T1 sequence (Q86SK9 1-330): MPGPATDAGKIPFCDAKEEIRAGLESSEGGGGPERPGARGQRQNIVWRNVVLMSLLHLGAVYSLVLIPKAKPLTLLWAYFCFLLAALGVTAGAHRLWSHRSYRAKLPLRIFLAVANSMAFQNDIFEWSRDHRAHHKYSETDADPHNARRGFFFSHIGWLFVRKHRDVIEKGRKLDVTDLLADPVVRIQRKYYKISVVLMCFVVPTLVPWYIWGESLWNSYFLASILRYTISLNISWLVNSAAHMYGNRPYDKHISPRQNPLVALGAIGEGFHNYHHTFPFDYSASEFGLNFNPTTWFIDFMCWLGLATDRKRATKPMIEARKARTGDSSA
The experiment in a line: Growth inhibition of yeast strain expressing human SCD5 as sole desaturase (OLE1 deleted), OD600 readout. The format is cell-based.

Assay [2] has as its target T2, human SCD1 (Homo sapiens, UniProt O00767).
T2 construct: expressed in transfected cells; host or cells: yeast strain with OLE1 deleted, plasmid-borne human SCD1 (selected in SD-Ura)
T2 sequence (O00767 1-359): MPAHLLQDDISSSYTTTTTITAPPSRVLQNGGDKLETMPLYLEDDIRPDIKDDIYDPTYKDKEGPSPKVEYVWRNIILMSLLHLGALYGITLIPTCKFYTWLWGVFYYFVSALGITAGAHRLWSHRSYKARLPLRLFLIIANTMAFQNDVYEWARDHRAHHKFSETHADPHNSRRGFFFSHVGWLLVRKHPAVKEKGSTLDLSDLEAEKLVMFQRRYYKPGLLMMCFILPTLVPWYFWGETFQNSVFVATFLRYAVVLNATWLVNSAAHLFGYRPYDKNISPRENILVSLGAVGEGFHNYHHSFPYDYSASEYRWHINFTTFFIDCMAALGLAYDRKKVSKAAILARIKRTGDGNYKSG
Briefly: Growth inhibition of yeast strain expressing human SCD1 as sole desaturase (OLE1 deleted), OD600 readout. It is filed as cell-based.

[3] abbreviates: yeast strain expressing human SCD5 as sole desaturase, growth (OD600) after 40 h at 30° C., read-out: SCD5 IC50.
The mark [4] stands for this setting: yeast strain expressing human SCD1 as sole desaturase, growth (OD600) after 40 h at 30° C., read-out: SCD1 IC50.

Where two headings read alike, the source gives them in different places.

For the molecule `CN1N=C(C(=O)Nc2ccc(Cc3cccc(F)c3)cc2)CCC1=O` [Compound 1, N-(4-(3-fluorobenzyl)phenyl)-1-methyl-6-oxo-1,4,5,6-tetrahydropyridazine-3-carboxamide], the IC50 – broadly, the concentration that gives 50% inhibition – is 5.16 µM in assay [1] (setting [3]) and above 45 µM in assay [2] (setting [4]).
Taken in the same sequence, the figures for `CN1N=C(C(=O)Nc2ccc(Cc3cccc(Cl)c3)cc2)CCC1=O` [Compound 2, N-(4-(3-chlorobenzyl)phenyl)-1-methyl-6-oxo-1,4,5,6-tetrahydropyridazine-3-carboxamide] were 2.65 µM and above 45 µM.
Taken in the same sequence, the figures for `Cn1nc(C(=O)Nc2ccc(Cc3cccc(Cl)c3)cc2)ccc1=O` [Compound 3, N-(4-(3-chlorobenzyl)phenyl)-1-methyl-6-oxo-1,6-dihydropyridazine-3-carboxamide] were 0.45 µM and 0.99 µM.
Turning to `Cn1nc(C(=O)Nc2ccc(Cc3cccc(F)c3)cc2)ccc1=O` [Compound 4, N-(4-(3-fluorobenzyl)phenyl)-1-methyl-6-oxo-1,6-dihydropyridazine-3-carboxamide], the IC50 was determined as 0.58 µM in assay [1] (setting [3]) and 1.73 µM in assay [2] (setting [4]).
For `Cn1cc(C(=O)Nc2ccc(Cc3cccc(F)c3)cc2)ccc1=O` [Compound 5, N-(4-(3-fluorobenzyl)phenyl)-1-methyl-6-oxo-1,6-dihydropyridine-3-carboxamide], the values for the IC50 in assay [1] (setting [3]) and in assay [2] (setting [4]) were 1.87 µM and 3.34 µM, respectively.
Regarding `CN1N=C(C(=O)Nc2ccc(Cc3cccc(F)c3)cn2)CCC1=O` [Compound 6, N-(5-(3-fluorobenzyl)pyridin-2-yl)-1-methyl-6-oxo-1,4,5,6-tetrahydropyridazine-3-carboxamide], the IC50 in assay [1] (setting [3]) is 1.02 µM; in assay [2] (setting [4]), above 45 µM.
Regarding `CN1N=C(C(=O)Nc2ccc(Cc3cccc(C#N)c3)cn2)CCC1=O` [Compound 8, N-(5-(3-cyanobenzyl)pyridin-2-yl)-1-methyl-6-oxo-1,4,5,6-tetrahydropyridazine-3-carboxamide], in assay [2] (setting [4]), the IC50 is above 45 µM.
For the molecule `CN1N=C(C(=O)Nc2ccc(Cc3ccc(F)c(C#N)c3)cn2)CCC1=O` [Compound 10, N-(5-(3-cyano-4-fluorobenzyl)pyridin-2-yl)-1-methyl-6-oxo-1,4,5,6-tetrahydropyridazine-3-carboxamide], the IC50 in assay [1] (setting [3]) was 0.5 µM; in assay [2] (setting [4]), 9.54 µM.
`CN1N=C(C(=O)Nc2ccc(Cc3ccc(Cl)c(F)c3)cn2)CCC1=O` [Compound 11, N-(5-(4-chloro-3-fluorobenzyl)pyridin-2-yl)-1-methyl-6-oxo-1,4,5,6-tetrahydropyridazine-3-carboxamide]: the IC50 in assay [1] (setting [3]) is 0.08 µM; in assay [2] (setting [4]) it was 2.74 µM.
`CN1N=C(C(=O)Nc2ccc(Cc3ccccc3)cn2)CCC1=O` [Compound 13, N-(5-benzylpyridin-2-yl)-1-methyl-6-oxo-1,4,5,6-tetrahydropyridazine-3-carboxamide]: in assay [2] (setting [4]), the IC50 is above 45 µM.
Take `CN1N=C(C(=O)Nc2ccc(Cc3cc(C(F)(F)F)ccn3)cn2)CCC1=O` [Compound 14, 1-methyl-6-oxo-N-(5-((4-(trifluoromethyl)pyridin-2-yl)methyl)pyridin-2-yl)-1,4,5,6-tetrahydropyridazine-3-carboxamide]: the IC50 in assay [1] (setting [3]) was 3.74 µM; in assay [2] (setting [4]), 17.3 µM.
Regarding `COc1cc(Cl)cc(Cc2ccc(NC(=O)c3ccc(=O)n(C)c3)nc2)c1` [Compound 50, N-(5-(3-chloro-5-methoxybenzyl)pyridin-2-yl)-1-methyl-6-oxo-1,6-dihydropyridine-3-carboxamide], the figures for the IC50 in assay [1] (SCD5 IC50) and in assay [2] (SCD1 IC50) were 0.02 µM and 1.53 µM, respectively.
`CN1N=C(C(=O)Nc2ccc(Cc3cc(Cl)cc(C#N)c3)cn2)CCC1=O` [Compound 51, N-(5-(3-chloro-5-cyanobenzyl)pyridin-2-yl)-1-methyl-6-oxo-1,4,5,6-tetrahydropyridazine-3-carboxamide]: the IC50 in assay [1] (setting [3]) is 1.56 µM; in assay [2] (setting [4]) it was above 45 µM.
In the case of `COc1cc(F)cc(Cc2ccc(NC(=O)c3ccc(=O)n(C)c3)nc2)c1` [Compound 52, N-(5-(3-fluoro-5-methoxybenzyl)pyridin-2-yl)-1-methyl-6-oxo-1,6-dihydropyridine-3-carboxamide], the IC50 in assay [1] (SCD5 IC50) stood at 0.13 µM; in assay [2] (SCD1 IC50), 8.21 µM.
For `Cn1cc(C(=O)Nc2ccc(Cc3ccc(F)cc3)cn2)ccc1=O` [Compound 53, N-(5-(4-fluorobenzyl)pyridin-2-yl)-1-methyl-6-oxo-1,6-dihydropyridine-3-carboxamide], the IC50 came out at 0.01 µM in assay [1] (SCD5 IC50) and 0.28 µM in assay [2] (SCD1 IC50).
Taken in the same sequence, the figures for `COc1cc(Cc2ccc(NC(=O)c3ccc(=O)n(C)c3)nc2)ccc1F` [Compound 54, N-(5-(4-fluoro-3-methoxybenzyl)pyridin-2-yl)-1-methyl-6-oxo-1,6-dihydropyridine-3-carboxamide] were 0.58 µM and 12 µM.
Regarding `N#Cc1ccc(C(=O)Nc2ccc(Cc3cccc(F)c3)cn2)nc1` [Compound 135, 5-cyano-N-(5-(3-fluorobenzyl)pyridin-2-yl)picolinamide], the IC50 in assay [2] (setting [4]) amounted to 14.1 µM.
Same read-out and setting: for `N#Cc1ccc(C(=O)Nc2ccc(Cc3cccc(F)c3)cn2)nc1` [Compound 142, 5-cyano-N-(5-(3-fluorobenzyl)pyridin-2-yl)picolinamide] the value was above 45 µM.
On to `Cc1nnc2ccc(C(=O)Nc3ccc(Cc4cccc(F)c4)cn3)cn12` [Compound 152, N-(5-(3-fluorobenzyl)pyridin-2-yl)-3-methyl-[1,2,4]triazolo[4,3-a]pyridine-6-carboxamide], for which the IC50 in assay [2] (setting [4]) is above 45 µM.
In the case of `Cn1cc(C(=O)Nc2ccc(Oc3cccc(F)c3)cn2)ccc1=O` [Compound 160, N-[5-(3-fluorophenoxy)pyridin-2-yl]-1-methyl-6-oxo-1,6-dihydropyridine-3-carboxamide], in assay [2] (setting [4]), the IC50 was above 45 µM.
For the molecule `Cn1nc(C(=O)Nc2ccc(Oc3cccc(F)c3)cn2)ccc1=O` [Compound 162, N-[5-(3-fluorophenoxy)pyridin-2-yl]-1-methyl-6-oxo-1,6-dihydropyridazine-3-carboxamide], in assay [2] (setting [4]), the IC50 was above 45 µM.
For `CCn1cc(C(=O)Nc2ccc(Oc3cccc(F)c3)cn2)ccc1=O` [Compound 164, 1-ethyl-N-[5-(3-fluorophenoxy)pyridin-2-yl]-6-oxo-1,6-dihydropyridine-3-carboxamide], the IC50 in assay [2] (setting [4]) is above 45 µM.
Regarding `COc1cccc(Cc2ccc(NC(=O)C3=NN(C)C(=O)CC3)nn2)c1` [Compound 182, N-(6-(3-methoxybenzyl)pyridazin-3-yl)-1-methyl-6-oxo-1,4,5,6-tetrahydropyridazine-3-carboxamide], in assay [2] (setting [4]), the IC50 was above 45 µM.
Consider `CN1N=C(C(=O)Nc2ccc(Cc3cccc(F)c3)nn2)CCC1=O` [Compound 193, N-(6-(3-fluorobenzyl)pyridazin-3-yl)-1-methyl-6-oxo-1,4,5,6-tetrahydropyridazine-3-carboxamide], for which the IC50 in assay [2] (setting [4]) was above 45 µM.
The same measure, in the same setting: for `Cn1nc(C(=O)Nc2cnn(Cc3cccc(Cl)c3)c2)ccc1=O` [Compound 215, N-(1-(3-chlorobenzyl)-1H-pyrazol-4-yl)-1-methyl-6-oxo-1,6-dihydropyridazine-3-carboxamide] the value was 1.28 µM.
For `CN1N=C(C(=O)Nc2ccc(Cc3ccccc3)nn2)CCC1=O` [Compound 253], in assay [1] (setting [3]), the IC50 stood at 4.75 µM.
Same read-out and setting: the same measure for `CN1N=C(c2nc3cc(Cc4cccc(Cl)c4)cnc3[nH]2)CCC1=O` [Compound 255]: 4.74 µM.
Take `Cn1cc(C(=O)Nc2ccc(COc3cccc(Cl)c3)cn2)ccc1=O` [Compound 263]: the IC50 in assay [2] (setting [4]) is above 45 µM.
On to `CN1N=C(C(=O)Nc2ccc(/C=C/c3cccc(Cl)c3)nn2)CCC1=O` [Compound 418], for which, in assay [1] (setting [3]), the IC50 is above 45 µM.
As to `CN1N=C(C(=O)Nc2ccc(Cc3ccc(F)cc3)cn2)CCC1=O` [Example 17, N-(5-(4-fluorobenzyl)pyridin-2-yl)-1-methyl-6-oxo-1,4,5,6-tetrahydropyridazine-3-carboxamide], the IC50 in assay [2] (setting [4]) was above 45 µM.
On the same count and under the same terms, the same measure for `CN1N=C(C(=O)Nc2ccc(Cc3ccc4c(c3)COC4)cn2)CCC1=O` [Example 19, N-(5-((1,3-dihydroisobenzofuran-5-yl)methyl)pyridin-2-yl)-1-methyl-6-oxo-1,4,5,6-tetrahydropyridazine-3-carboxamide]: above 45 µM; for `CN1N=C(C(=O)Nc2ccc(Cc3cc(F)cc(F)c3)cn2)CCC1=O` [Example 22, N-(5-(3,5-difluorobenzyl)pyridin-2-yl)-1-methyl-6-oxo-1,4,5,6-tetrahydropyridazine-3-carboxamide]: above 45 µM; for `CN1N=C(C(=O)Nc2ccc(Cc3cc(F)cc(C#N)c3)cn2)CCC1=O` [Example 26, N-(5-(3-cyano-5-fluorobenzyl)pyridin-2-yl)-1-methyl-6-oxo-1,4,5,6-tetrahydropyridazine-3-carboxamide]: above 45 µM.

For the origin of these results see US20230078764A1 (Yumanity Therapeutics, Inc., priority 2019, published 2023).
